Assay results as given in patent publication US12220394B2, “Pharmaceutical composition for prevention or treatment of kidney damage” (National University Corporation Kanazawa University, priority 2018, dated 2025).

Key:
[1] = system: kidney tissue after ischemia reperfusion; test: PAS staining and ATN score of kidney tissue sections after renal ischemia reperfusion; type: in vivo, C57BL/6J mice; conditions: 10 days after ischemia reperfusion
Experimental: The animals were reared with free access to water and feed under conditions with an SPF environment and 12-hour light-dark cycling. C57BL/6J mice were purchased from Clea Japan, Inc. (Osaka). Male 12- to 16-week-old mice were treated by renal ischemia reperfusion (hereunder also referred to as “I/R”). The renal pedicles were clamped with a non-traumatic clip (Natsume Seisakusho, Tokyo) under pentobarbital anesthesia to elicit ischemia. The clips were released after 40 minutes. The body temperature was kept at 37° C. during treatment. […] On day 10 after IR treatment, the kidney tissues were sampled. After ischemia reperfusion, the kidneys sampled on day 10 were fixed with 10% neutral buffered formalin and embedded in paraffin, and then stained with periodic acid-Schiff (PAS staining). The stained slices were photographed with a bright-field microscope (FIG. 1). Debris stained with PAS (skin boundary) or brush border (skin boundary and cortical region) were quantitatively evaluated in at least 10 different locations. The debris, renal tubular dilation, brush border damage, and renal tubule necrosis were evaluated by ATN score (0: none, 1: mild, 2: moderate, 3: severe). Sample evaluation was carried out blind.

[2] = system: fibrotic tissue in kidney; test: AZAN staining of kidney tissue after renal ischemia reperfusion; type: in vivo, C57BL/6J mice
Experimental: The animals were reared with free access to water and feed under conditions with an SPF environment and 12-hour light-dark cycling. C57BL/6J mice were purchased from Clea Japan, Inc. (Osaka). Male 12- to 16-week-old mice were treated by renal ischemia reperfusion (hereunder also referred to as “I/R”). The renal pedicles were clamped with a non-traumatic clip (Natsume Seisakusho, Tokyo) under pentobarbital anesthesia to elicit ischemia. The clips were released after 40 minutes. The body temperature was kept at 37° C. during treatment. The mice were reared with free access to water (control) or 20 mM D-alanine-containing water, prior to 14 days after IR treatment. On day 10 after IR treatment, the kidney tissues were sampled. After ischemia reperfusion, the kidney tissues sampled on day 10 were fixed with 10% neutral buffered formalin and provided for AZAN staining. In AZAN staining, fibrotic tissue is stained with aniline blue. […] The proportion of stained region in each group was measured (FIG. 4(B)).

[3] = cited from earlier work
[4] = system: macrophages in kidney tissue; test: F4/80 immunostaining of kidney tissue after renal ischemia reperfusion; type: in vivo, C57BL/6J mice
Experimental: The animals were reared with free access to water and feed under conditions with an SPF environment and 12-hour light-dark cycling. C57BL/6J mice were purchased from Clea Japan, Inc. (Osaka). Male 12- to 16-week-old mice were treated by renal ischemia reperfusion (hereunder also referred to as “I/R”). The renal pedicles were clamped with a non-traumatic clip (Natsume Seisakusho, Tokyo) under pentobarbital anesthesia to elicit ischemia. The clips were released after 40 minutes. The body temperature was kept at 37° C. during treatment. The mice were reared with free access to water (control) or 20 mM D-alanine-containing water, prior to 14 days after IR treatment. On day 10 after IR treatment, the kidney tissues were sampled. After ischemia reperfusion, the kidney tissues harvested on day 10 were fixed with 10% neutral buffered formalin and supplied for immunostaining using F4/80 antibody (Invitrogen, catalog #: MF48,000). F4/80 is a protein expressed specifically by macrophages, and it allows visualization of macrophages in kidney tissue. In the water-administered control group, cells stained with F4/80 were found accumulated in kidney tissue ([…]), but in the D-alanine-administered groups (20 mM and 80 mM) such cellular accumulation was minimal (FIG. 3(A)). The proportion of stained region in each group was measured (FIG. 3(B)).

[5] = D-alanine group compared with water group
[6] = 10 days after ischemia reperfusion, D-alanine group vs water group

C[C@@H](N)C(=O)O [D-alanine]
PAS staining intensity of kidney tissue section (accumulation of inflammatory cells such as neutrophils and eosinophils) ([1]; D-alanine 20 mM and 80 mM in drinking water vs water group): decreased in a dose-dependent manner | grade of brush border region in kidney tissue section (ATN score) [1, 5]: improved in a dose-dependent manner | grade of intraluminal debris in kidney tissue section (ATN score) [1, 5]: improved in a dose-dependent manner | grade of necrosis in kidney tissue section (ATN score) [1, 5]: improved in a dose-dependent manner | AZAN staining intensity of kidney tissue section (fibrosis) [2, 6]: decreased in a dose-dependent manner | aniline blue-stained regions (fibrotic tissue) in kidney tissue ([2]; day 10 after ischemia reperfusion, D-alanine 20 mM and 80 mM vs water-administered control): reduced in a dose-dependent manner | adverse events when used as a food ([3]; ingestion on the order of 10 g): No adverse events have been reported | toxicity via oral administration ([3]; oral administration): no reported toxicity | F4/80 staining intensity of kidney tissue section (accumulation of macrophages and monocytes) [4, 6]: decreased in a dose-dependent manner | accumulation of cells stained with F4/80 in kidney tissue ([4]; after ischemia reperfusion, D-alanine 20 mM and 80 mM vs water-administered control): minimal
